PubChem BioAssay AID1195 (EPA DSSTox, 2008)

System: human maximum recommended daily dose, FDA database
Assay: DSSTox (FDAMDD) FDA Maximum (Recommended) Daily Dose Database
Conditions: active compounds read low
Excerpt: The Food and Drug Administration (FDA) Center for Drug Evaluation and Research, Office of Pharmaceutical Science, Informatics and Computational Safety Analysis Staff's Maximum Recommended Daily Dose (FDAMDD) database contains values for over 1200 pharmaceuticals listed in Martindale: The Extra Pharmacopoeia (1973, 1983, and 1993) and The Physicians' Desk Reference (1995 and 1999). Some classes of chemicals were excluded from the FDAMDD database due to their unsuitability for most QSAR modeling programs. These were inorganic chemicals, high molecular weight polymers (>5000 Daltons), fibers, salts, mixtures of organic chemicals, and small molecules (<100 Daltons). FDAMDD is the non-proprietary portion of the database that was used in the QSAR analysis reported in the Main Citation. DSSTox FDAMDD has fewer substance records than the original MRDD Source database due to consolidation of partial structures (i.e., complexed entities) into a single record and elimination of duplicate entries. DSSTox FDAMDD also differs from the MRDD Source database in presenting complete structural information pertaining to the actual salt or complexed form corresponding to the listed ChemicalName and CASRN. According to the Source authors, there are a number of cases where multiple related forms or derivatives of a drug were listed as separate records but were assumed to fall under the same clinical toxicity assessment and, therefore, assigned the same Dose_MRDD_mg activity value. For the DSSTox FDAMDD, we have labeled these derivatives in the ChemClass_MRDD_grouping field and provide their counts in the ChemicalReplicateCount field to highlight their special nature.
Maximum recommended daily dose (or maximum recommended therapeutic dose) values were determined from pharmaceutical clinical trials that employed an oral route of exposure and daily treatments, usually for 3-12 months. Drugs were given as single or divided dose treatment regimens to achieve desired pharmacological effects. Roughly 5% of the pharmaceuticals in the FDAMDD data file were antineoplastics and anesthetics and were administered intravenously and/or intramuscularly. When separate MRDDs were reported for different routes of exposure, only the oral MRDD was included in the data file and only MRDD values reported for the average adult patient were used. Pharmaceuticals that are administered orally are usually tested over a limited range of doses and have MRDDs reported as mg/day. The mg/day unit was converted to mg/kg-body weight (bw)/day based upon an average adult weighing 60 kg. In contrast, the dose unit for most antineoplastic drug MRDDs is reported as mg/m2 which was converted to mg/kg-bw/day using the formula mg/kg-bw/day = mg/m2/37 for an average adult. Additionally, a few drugs had MRDDs reported in parts per million (ppm) which were converted to mg/kg-bw/day on the basis that 1000 ppm equals 25 mg/kg-bw/day for an average 60 kg adult. Activity Score is mapping of LOG10(1/Dose_MRDD_mmol) spanning activity range [MIN, MAX] onto Integer 1-100 Activity range, where 100 is highest potency and 1 is lowest potency: ActivityScore = 100 * INTEGER[(LOGINV_MRDD_mmol - MIN)/(MAX […] MIN)]. Activity Outcome is "active" for all substances, since Dose_MRDD_mmol is reported for all substances.

[1] = TherapeuticCategory: antineoplastic
[2] = TherapeuticCategory: antipsychotic
[3] = TherapeuticCategory: antihypertensive
[4] = TherapeuticCategory: antibacterial

## CCCCN1CCCCC1C(=O)Nc1c(C)cccc1C (centres undefined)
TherapeuticCategory: local anesthetic
  maximum recommended daily dose (mmol/kg-bw/day): 0.013

## COc1c(C)c2c(c(O)c1C/C=C(\C)CCC(=O)OCCN1CCOCC1)C(=O)OC2
[1]
  maximum recommended daily dose (mmol/kg-bw/day): 0.277

## CCN(CC)C(=O)[C@@H]1C=C2c3cccc4[nH]cc(c34)C[C@H]2N(C)C1
TherapeuticCategory: antipsychotic, seratonin receptor antagonist
  maximum recommended daily dose (mmol/kg-bw/day): 3.86e-05

## COc1ccc(C(=O)Nc2ccccc2CCC2CCCCN2C)cc1 (centres undefined)
TherapeuticCategory: antiarrhythmic
  maximum recommended daily dose (mmol/kg-bw/day): 0.00945

## CC(C)CCON=O
TherapeuticCategory: none
  maximum recommended daily dose (mmol/kg-bw/day): 0.0427

## CC(C)NCC(O)c1ccc(NS(C)(=O)=O)cc1 (centres undefined)
TherapeuticCategory: antianginal, antiarrhythmic, antihypertensive
  maximum recommended daily dose (mmol/kg-bw/day): 0.0196

## COc1cc(N)c(Cl)cc1C(=O)NC1CCN(CCCOc2ccc(F)cc2)CC1OC (centres undefined)
TherapeuticCategory: peristaltic stimulant
  maximum recommended daily dose (mmol/kg-bw/day): 0.00285

## CCCCNC(=O)OCC(C)(CCC)COC(N)=O (centres undefined)
TherapeuticCategory: anxiolytic
  maximum recommended daily dose (mmol/kg-bw/day): 0.182

## C[C@H](N)[C@H](O)c1cccc(O)c1
TherapeuticCategory: adrenergic
  maximum recommended daily dose (mmol/kg-bw/day): 0.0498

## CC(=O)c1ccc2c(c1)N(CCCN1CCN(CCO)CC1)c1ccccc1S2
[2]
  maximum recommended daily dose (mmol/kg-bw/day): 0.0243

## CCCC(=O)N1CCCN(c2nc(N)c3cc(OC)c(OC)cc3n2)CC1
[3]
  maximum recommended daily dose (mmol/kg-bw/day): 0.000134

## Oc1ccc2c3c1O[C@H]1[C@@H](O)CC[C@@]4(O)[C@@H](C2)N(CC2CCC2)CC[C@]314
TherapeuticCategory: narcotic analgesic
  maximum recommended daily dose (mmol/kg-bw/day): 0.0028

## CCOC(=O)[C@H](CCc1ccccc1)N[C@@H](C)C(=O)N1[C@H](C(=O)O)C[C@H]2CCCC[C@@H]21
[3]
  maximum recommended daily dose (mmol/kg-bw/day): 0.00124

## NC(=O)C1CCN(CCCN2c3ccccc3Sc3ccc(Cl)cc32)CC1
TherapeuticCategory: antiemetic
  maximum recommended daily dose (mmol/kg-bw/day): 0.000622

## Nc1nc(Cl)nc2c1ncn2[C@H]1C[C@H](O)[C@@H](CO)O1
[1]
  maximum recommended daily dose (mmol/kg-bw/day): 0.000315

## C#CC1(OC(N)=O)CCCCC1
TherapeuticCategory: sedative, hypnotic
  maximum recommended daily dose (mmol/kg-bw/day): 0.0999

## CCc1c(C)[nH]c2c1C(=O)C(CN1CCOCC1)CC2 (centres undefined)
[2]
  maximum recommended daily dose (mmol/kg-bw/day): 0.0136

## Nc1c(N=Nc2ccc(-c3ccc(N=Nc4cc(S(=O)(=O)O)c5ccccc5c4N)cc3)cc2)cc(S(=O)(=O)O)c2ccccc12
TherapeuticCategory: diagnostic aid
  maximum recommended daily dose (mmol/kg-bw/day): 0.00538

## C[N+]12CCC(CC1)C(OC(=O)C(O)(c1ccccc1)c1ccccc1)C2 (centres undefined)
TherapeuticCategory: anticholinergic
  maximum recommended daily dose (mmol/kg-bw/day): 0.00077

## COc1ncnc(NS(=O)(=O)c2ccc(N)cc2)c1OC
[4]
  maximum recommended daily dose (mmol/kg-bw/day): 0.0806

## O=C(O)C(S)C(S)C(=O)O (centres undefined)
TherapeuticCategory: antidote for heavy metal poisoning, radioactive imaging agent
  maximum recommended daily dose (mmol/kg-bw/day): 0.0549

## CO/N=C(\C(=O)N[C@@H]1C(=O)N2C(C(=O)O)=C(CSc3nc(=O)c(=O)[nH]n3C)CS[C@H]12)c1csc(N)n1
[4]
  maximum recommended daily dose (mmol/kg-bw/day): 0.12

## CC(C)=CCC1C(=O)N(c2ccccc2)N(c2ccccc2)C1=O
TherapeuticCategory: anti inflammatory
  maximum recommended daily dose (mmol/kg-bw/day): 0.039

## CN[C@@H]1[C@@H](O)[C@@H](O[C@@H]2[C@@H](O)[C@H](O[C@H]3O[C@H](CN)CC[C@H]3N)[C@@H](N)C[C@H]2N)OC[C@]1(C)O
[4]
  maximum recommended daily dose (mmol/kg-bw/day): 0.00667

## C(=C\c1ccccc1)/CN1CCN(C(c2ccccc2)c2ccccc2)CC1
TherapeuticCategory: antihistaminic, peripheral vasodilator
  maximum recommended daily dose (mmol/kg-bw/day): 0.0102

## CC[C@H]1OC(=O)[C@H](C)[C@@H](O[C@H]2C[C@@](C)(OC)[C@@H](O)[C@H](C)O2)C(C)[C@@H](O[C@@H]2O[C@H](C)C[C@H](N(C)C)[C@H]2O)[C@](C)(OC)C[C@@H](C)C(=O)[C@H](C)[C@@H](O)[C@]1(C)O (some centres undefined)
[4]
  maximum recommended daily dose (mmol/kg-bw/day): 0.0111

## O=C(CCCN1CCC(O)(c2ccc(Br)cc2)CC1)c1ccc(F)cc1
[2]
  maximum recommended daily dose (mmol/kg-bw/day): 0.00198

## Nc1cc(-c2ccncc2)c[nH]c1=O
TherapeuticCategory: cardiotonic
  maximum recommended daily dose (mmol/kg-bw/day): 0.00401

## C[C@]12CC[C@H](O)CC1=CC[C@@H]1[C@@H]2CC[C@]2(C)C(=O)CC[C@@H]12
TherapeuticCategory: androgen
  maximum recommended daily dose (mmol/kg-bw/day): 0.0115
